Several values for one entry are separate records, joined by “and”; a condition that tells them apart may be missing. Equal entries are not always repeated. Where two headings read alike, the source gives them in different places.
Tested on: M. tuberculosis H37Rv (ATCC 27294)
Assay: In vitro anti-tuberculosis screening, BACTEC 460 radiometric system, percent inhibition of growth
Format: cell-based, Mycobacterium tuberculosis
Conditions: Mtb H37Rv; for inhibition at 12.5 µg/mL: Mycobacterium tuberculosis
[1] = 12.5 μg/mL, BACTEC 12B medium, read-out: Activity % Inhibition at 12.5 μg/mL (biflavonoids)
[2] = drug concentration 12.5 μg/mL, read-out: inhibition of the growth of Mtb

O=c1cc(-c2ccccc2)oc2ccc(F)cc12 [Compound 112]
anti-TB activity in words (12.5 μg/mL): weakly active or inactive
Activity % Inhibition at 12.5 μg/mL (flavones) (12.5 μg/mL, BACTEC 12B medium): 7%

COc1ccc(/C=C/C(=O)c2cccc(F)c2O)cc1 [Compound 23]
Activity % inhibition at 12.5 μg/mL (chalcones) (12.5 μg/mL, BACTEC 12B medium): 45%

O=c1cc(-c2ccccc2)oc2c(Br)cccc12 [Compound 77]
Activity % Inhibition at 12.5 μg/mL (flavones) (12.5 μg/mL, BACTEC 12B medium): 66%

COc1ccc(-c2oc3cc(F)ccc3c(=O)c2OC(C)=O)cc1 [Compound 86]
Activity % Inhibition at 12.5 μg/mL (flavones) (12.5 μg/mL, BACTEC 12B medium): 50%

Nc1ccccc1/C=C/C(=O)c1ccc(Br)cc1O [Compound 38]
Activity % inhibition at 12.5 μg/mL (chalcones) (12.5 μg/mL, BACTEC 12B medium): 12%
inhibition of the growth of Mtb (drug concentration 12.5 μg/mL): 8% and 12%

O=C1c2c(O)cc(O)cc2O[C@H](c2ccc(O)cc2)[C@H]1c1c(O)cc(O)c2c(=O)cc(-c3ccc(O)c(O)c3)oc12 [Compound 171, Morelloflavone]
inhibition at 12.5 µg/mL [1]: 0%

Nc1ccc(C(=O)C=Cc2cccnc2N)cc1 [Compound 73]
Activity % inhibition at 12.5 μg/mL (chalcone-like compounds) (12.5 μg/mL, BACTEC 12B medium): 0%

COc1ccc(-c2cc(=O)c3cc(C(=O)O)ccc3o2)cc1 [Compound 115]
Activity % Inhibition at 12.5 μg/mL (flavones) (12.5 μg/mL, BACTEC 12B medium): 2%

Nc1ccc(C(=O)/C=C/c2cccnc2N)cc1 [Compound 66]
Activity % inhibition at 12.5 μg/mL (chalcone-like compounds) (12.5 μg/mL, BACTEC 12B medium): 7%

O=C(c1ccccc1)c1ccc2c(=O)c(C(=O)c3ccccc3)c(-c3ccccc3)oc2c1 [Compound 110]
Activity % Inhibition at 12.5 μg/mL (flavones) (12.5 μg/mL, BACTEC 12B medium): 12%

O=c1cc(-c2ccc(O)c(-c3c(O)cc4oc(-c5ccc(O)cc5)cc(=O)c4c3O)c2)oc2cc(O)cc(O)c12 [Compound 166, Robustaflavone]
inhibition at 12.5 µg/mL [1]: 0%

COc1ccc(/C=C/C(=O)c2ccccn2)cc1 [Compound 76]
Activity % inhibition at 12.5 μg/mL (chalcone-like compounds) (12.5 μg/mL, BACTEC 12B medium): 0%

COc1ccc(/C=C/C(=O)c2ccc([N+](=O)[O-])cc2)cc1 [Compound 4]
Activity % inhibition at 12.5 μg/mL (chalcones) (12.5 μg/mL, BACTEC 12B medium): 62%

COc1ccc2c(c1)OC(c1ccccc1)C(C1C(=O)c3ccc(OC)cc3OC1c1ccccc1)C2=O (stereo not shown) [Compound 160, 3-3″-Bi-(7-methoxyflavanone)]
Activity % Inhibition at 12.5 μg/mL (biflavonoids) (12.5 μg/mL, BACTEC 12B medium): 0%

CC(=O)Oc1ccc([C@@H]2CC(=O)c3c(cc(OC(C)=O)c(-c4c(OC(C)=O)cc5c(c4OC(C)=O)C(=O)C[C@@H](c4ccc(OC(C)=O)cc4)O5)c3OC(C)=O)O2)cc1 [Compound 174, Succedaneaflavanone hexaacetate]
Activity % Inhibition at 12.5 μg/mL (biflavonoids) (12.5 μg/mL, BACTEC 12B medium): 0%

COc1ccc(-c2oc3cc(OC)cc(OC)c3c(=O)c2Br)cc1 [Compound 131]
Activity % Inhibition at 12.5 μg/mL (flavones) (12.5 μg/mL, BACTEC 12B medium): 0%

O=c1cc(-c2ccccc2)oc2ccc(I)cc12 [Compound 124]
anti-TB activity in words (12.5 μg/mL): weakly active or inactive
Activity % Inhibition at 12.5 μg/mL (flavones) (12.5 μg/mL, BACTEC 12B medium): 0%

COc1ccc(C2CC(=O)c3ccc(I)cc3O2)cc1 (stereo not shown) [Compound 149]
Activity % Inhibition at 12.5 μg/mL (flavanones) (12.5 μg/mL, BACTEC 12B medium): 0%

CN(C)c1ccc(/C=C/C(=O)c2ccncc2)cc1 [Compound 68]
Activity % inhibition at 12.5 μg/mL (chalcone-like compounds) (12.5 μg/mL, BACTEC 12B medium): 1%

O=c1cc(-c2cccc(I)c2)oc2ccccc12 [Compound 101]
anti-TB activity in words (12.5 μg/mL): weakly active or inactive
Activity % Inhibition at 12.5 μg/mL (flavones) (12.5 μg/mL, BACTEC 12B medium): 22%

COc1ccc(C2CC(=O)c3cc(C(=O)O)ccc3O2)cc1 (stereo not shown) [Compound 145]
Activity % Inhibition at 12.5 μg/mL (flavanones) (12.5 μg/mL, BACTEC 12B medium): 0%

COc1ccc(/C=C/C(=O)c2cccc(I)c2O)cc1 [Compound 49]
Activity % inhibition at 12.5 μg/mL (chalcones) (12.5 μg/mL, BACTEC 12B medium): 0%
inhibition of the growth of Mtb (drug concentration 12.5 μg/mL): 0%

COc1ccc(C=CC(=O)c2ccc(Br)cc2O)cc1 [Compound 36]
Activity % inhibition at 12.5 μg/mL (chalcones) (12.5 μg/mL, BACTEC 12B medium): 25%
inhibition of the growth of Mtb (drug concentration 12.5 μg/mL): 25%

O=C1C[C@@H](c2ccc(O)cc2)Oc2c1c(O)cc(O[C@@H]1O[C@H](CO)[C@@H](O)[C@H](O)[C@H]1O)c2[C@H]1C(=O)c2c(O)cc(O)cc2O[C@@H]1c1ccc(O)cc1 [Compound 178, Multifloraside]
Activity % Inhibition at 12.5 μg/mL (biflavonoids) (12.5 μg/mL, BACTEC 12B medium): 0%

COc1ccc(/C=C/C(=O)c2cc(I)ccc2O)cc1 [Compound 48]
Activity % inhibition at 12.5 μg/mL (chalcones) (12.5 μg/mL, BACTEC 12B medium): 0%
inhibition of the growth of Mtb (drug concentration 12.5 μg/mL): 0%

Nc1ncccc1C=CC(=O)c1cc(Cl)ccc1O [Compound 72]
Activity % inhibition at 12.5 μg/mL (chalcone-like compounds) (12.5 μg/mL, BACTEC 12B medium): 0%

CC(=O)Oc1ccc([C@@H]2CC(=O)c3c(cc(OC(C)=O)c(-c4c(OC(C)=O)cc(OC(C)=O)c5c4O[C@H](c4ccc(OC(C)=O)cc4)CC5=O)c3OC(C)=O)O2)cc1 [Compound 173, Rhusflavanone hexaacetate]
Activity % Inhibition at 12.5 μg/mL (biflavonoids) (12.5 μg/mL, BACTEC 12B medium): 0%

O=C(/C=C/c1cccc(O)c1)c1ccccc1O [Compound 10]
Activity % inhibition at 12.5 μg/mL (chalcones) (12.5 μg/mL, BACTEC 12B medium): 18%

O=C1CC(c2ccc(O)c(O)c2)Oc2c1c(O)cc(OC1OC(CO)C(O)C(O)C1O)c2C1C(=O)c2c(O)cc(O)cc2OC1c1ccc(O)cc1 (stereo not shown) [Compound 179, Xanthochymuside]
Activity % Inhibition at 12.5 μg/mL (biflavonoids) (12.5 μg/mL, BACTEC 12B medium): 0%

O=C1CC(c2ccccc2)Oc2cc(I)ccc21 (stereo not shown) [Compound 141]
Activity % Inhibition at 12.5 μg/mL (flavanones) (12.5 μg/mL, BACTEC 12B medium): 9%

COc1ccc(-c2oc3ccc(Cl)cc3c(=O)c2O)cc1 [Compound 87]
anti-TB activity in words (12.5 μg/mL): did not change the activity
Activity % Inhibition at 12.5 μg/mL (flavones) (12.5 μg/mL, BACTEC 12B medium): 48%

O=c1cc(-c2ccccc2I)oc2ccccc12 [Compound 100]
anti-TB activity in words (12.5 μg/mL): weakly active or inactive
Activity % Inhibition at 12.5 μg/mL (flavones) (12.5 μg/mL, BACTEC 12B medium): 22%
inhibition of the growth of Mtb (drug concentration 12.5 μg/mL): 22%

O=c1c(O)c(-c2cccc(Br)c2)oc2ccccc12 [Compound 80]
Activity % Inhibition at 12.5 μg/mL (flavones) (12.5 μg/mL, BACTEC 12B medium): 60%

COc1ccc(/C=C/C(=O)c2cc(Cl)ccc2O)cc1 [Compound 29]
Activity % inhibition at 12.5 μg/mL (chalcones) (12.5 μg/mL, BACTEC 12B medium): 20%
inhibition of the growth of Mtb (drug concentration 12.5 μg/mL): 20%

O=c1c(I)c(-c2ccccc2)oc2ccccc12 [Compound 127]
anti-TB activity in words (12.5 μg/mL): weakly active or inactive
Activity % Inhibition at 12.5 μg/mL (flavones) (12.5 μg/mL, BACTEC 12B medium): 0%

COc1ccc(-c2cc(=O)c3ccc(F)cc3o2)cc1 [Compound 118]
Activity % Inhibition at 12.5 μg/mL (flavones) (12.5 μg/mL, BACTEC 12B medium): 0%

COc1cc(O)c(C(=O)/C=C/c2cc(OC)c(OC)c(OC)c2)c(O)c1 [Compound 15]
Activity % inhibition at 12.5 μg/mL (chalcones) (12.5 μg/mL, BACTEC 12B medium): 0%

COc1ccc(-c2cc(=O)c3ccccc3o2)cc1 [Compound 93]
Activity % Inhibition at 12.5 μg/mL (flavones) (12.5 μg/mL, BACTEC 12B medium): 29%

6-2′′′-Biapigenin [Compound 158]
Activity % Inhibition at 12.5 μg/mL (biflavonoids) (12.5 μg/mL, BACTEC 12B medium): 1%

Nc1ncccc1/C=C/C(=O)c1cc2ccccc2cc1O [Compound 74]
Activity % inhibition at 12.5 μg/mL (chalcone-like compounds) (12.5 μg/mL, BACTEC 12B medium): 0%

COc1c(-c2ccccc2)oc2ccc(Br)cc2c1=O [Compound 89]
Activity % Inhibition at 12.5 μg/mL (flavones) (12.5 μg/mL, BACTEC 12B medium): 44%

O=C1CC(c2ccccc2)Oc2ccc(I)cc21 (stereo not shown) [Compound 139]
Activity % Inhibition at 12.5 μg/mL (flavanones) (12.5 μg/mL, BACTEC 12B medium): 27%

COc1ccc(-c2oc3ccccc3c(=O)c2O)cc1 [Compound 88, 4′-methoxyflavonol]
increase in activity compared to 92 (12.5 μg/mL): 10%
inhibition at 12.5 µg/mL (12.5 μg/mL, BACTEC 12B medium, read-out: Activity % Inhibition at 12.5 μg/mL (flavones)): 48%

COc1ccc2c(c1)OC(c1cccc([N+](=O)[O-])c1)CC2=O (stereo not shown) [Compound 147]
Activity % Inhibition at 12.5 μg/mL (flavanones) (12.5 μg/mL, BACTEC 12B medium): 0%

O=C(O)c1ccc2c(c1)C(=O)CC(c1ccccc1)O2 (stereo not shown) [Compound 146]
Activity % Inhibition at 12.5 μg/mL (flavanones) (12.5 μg/mL, BACTEC 12B medium): 0%

O=c1cc(-c2ccc(Cl)c([N+](=O)[O-])c2)oc2ccccc12 [Compound 95]
Activity % Inhibition at 12.5 μg/mL (flavones) (12.5 μg/mL, BACTEC 12B medium): 28%

O=C1CC(c2ccccc2)Oc2cc(Br)ccc21 (stereo not shown) [Compound 136, 7-bromo-flavanone]
inhibition at 12.5 µg/mL (12.5 μg/mL, BACTEC 12B medium, read-out: Activity % Inhibition at 12.5 μg/mL (flavanones)): 53%
inhibition at 12.5 µg/mL [2]: 53%

O=c1cc(-c2cccc(Cl)c2)oc2ccccc12 [Compound 121]
anti-TB activity in words (12.5 μg/mL): weakly active or inactive
Activity % Inhibition at 12.5 μg/mL (flavones) (12.5 μg/mL, BACTEC 12B medium): 0%
inhibition of the growth of Mtb (drug concentration 12.5 μg/mL): 0%

O=C1c2c(O)cc(O)cc2OC(c2ccc(O)cc2)C1c1c(O[C@@H]2O[C@H](CO)[C@@H](O)[C@H](O)[C@H]2O)cc(O)c2c(=O)cc(-c3ccc(O)cc3)oc12 (stereo partly shown) [Compound 176, Spicataside]
Activity % Inhibition at 12.5 μg/mL (biflavonoids) (12.5 μg/mL, BACTEC 12B medium): 0%

Nc1cccc(C(=O)/C=C/c2ccccc2I)c1 [Compound 41]
Activity % inhibition at 12.5 μg/mL (chalcones) (12.5 μg/mL, BACTEC 12B medium): 88%
inhibition of the growth of Mtb (drug concentration 12.5 μg/mL): 88%

O=C(/C=C/c1ccccc1I)c1ccccc1O [Compound 44, 2′-hydroxy-2-iodochalcone]
inhibition at 12.5 µg/mL (12.5 μg/mL, BACTEC 12B medium, read-out: Activity % inhibition at 12.5 μg/mL (chalcones)): 41%
inhibition at 12.5 µg/mL [2]: 41%

O=c1cc(-c2ccccc2)oc2cc(I)ccc12 [Compound 102]
anti-TB activity in words (12.5 μg/mL): weakly active or inactive
Activity % Inhibition at 12.5 μg/mL (flavones) (12.5 μg/mL, BACTEC 12B medium): 20%

CC(=O)OC[C@H]1O[C@@H](Oc2cc(OC(C)=O)c3c(=O)cc(-c4ccc(OC(C)=O)cc4)oc3c2C2C(=O)c3c(OC(C)=O)cc(OC(C)=O)cc3OC2c2ccc(OC(C)=O)cc2)[C@H](OC(C)=O)[C@@H](OC(C)=O)[C@@H]1OC(C)=O (stereo partly shown) [Compound 177, Spicataside acetate]
Activity % Inhibition at 12.5 μg/mL (biflavonoids) (12.5 μg/mL, BACTEC 12B medium): 0%

COc1ccc2c(=O)c(Br)c(-c3ccc(Cl)cc3)oc2c1 [Compound 103]
Activity % Inhibition at 12.5 μg/mL (flavones) (12.5 μg/mL, BACTEC 12B medium): 19%

Reference: patent US6677350B1, “Beta-fluoroethyl thiourea compounds and use” (priority 1999, dated 2004)
